The record followed here is PubChem BioAssay (NCI).

Some test systems named below: LOX IMVI melanoma; NCI-H460 lung; SK-MEL-2 melanoma; KM12 colon; HCC-2998 colon; A498 renal; OVCAR-4 ovarian; SK-OV-3 ovarian; IGROV1 ovarian; MOLT-4 leukemia.
Assay in all cases: NCI tumour cell line growth inhibition, 48 h

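Dose response: 5 concentrations. Exposure: 48 h. Format: 96-well plates. Endpoint: linear interpolation; highest concentration if not reached. GI50: concentration for 50% inhibition of growth. Definition used: TGI = concentration required for complete inhibition of growth.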

For `CN(C)c1ccc(C(C=C2c3ccccc3Sc3ccccc32)=C(C#N)C#N)cc1`, the TGI with LOX IMVI melanoma, in the experiment on NCI-H460 lung, in the experiment with SK-MEL-2 melanoma, in the experiment on KM12 colon, in the experiment with HCC-2998 colon and with A498 renal was over 100 µM throughout. For the same compound, the TGI with OVCAR-4 ovarian was 50.1 µM; in the experiment with SK-OV-3 ovarian, over 100 µM; with IGROV1 ovarian, over 100 µM; in the experiment on MOLT-4 leukemia, over 100 µM.
`CCCCCCCCCCCCOC1C(C(COC2OC(C3COC(C)(C)O3)C3OC(C)(C)OC23)NC(=O)Nc2ccc(C(=O)O)cc2)OC2OC(C)(C)OC21` (stereo not given): the GI50 in the experiment with LOX IMVI melanoma was 3.23 µM; in the experiment with NCI-H460 lung, 2.45 µM; in the experiment on SK-MEL-2 melanoma it was 2.23 µM; in the experiment with KM12 colon, 2.22 µM; in the experiment on HCC-2998 colon, 2.05 µM; in the experiment on A498 renal it was 2.48 µM. The GI50 in the experiment with OVCAR-4 ovarian was 3.56 µM; in the experiment on SK-OV-3 ovarian, 11.7 µM; in the experiment on IGROV1 ovarian, 2.11 µM; with MOLT-4 leukemia, 3.29 µM. Further, the TGI in the experiment on LOX IMVI melanoma was determined as 10.3 µM; with NCI-H460 lung it was 5.89 µM; with SK-MEL-2 melanoma it was 4.82 µM; with KM12 colon, 4.36 µM; in the experiment with HCC-2998 colon, 3.82 µM; with A498 renal, 8.53 µM. Moreover, the TGI in the experiment with OVCAR-4 ovarian was 15.3 µM; in the experiment on SK-OV-3 ovarian it was 24 µM; with IGROV1 ovarian, 4.87 µM; in the experiment with MOLT-4 leukemia, 8.34 µM.
Take `O=C(Cc1ccc(/C=C/C(=O)c2ncc[nH]2)cc1)Nc1cc(F)c(F)c(F)c1`: the GI50 is 1.56 µM in the experiment with LOX IMVI melanoma; 3.31 µM in the experiment with NCI-H460 lung; 5.15 µM in the experiment with SK-MEL-2 melanoma; 2.81 µM in the experiment on KM12 colon; 3.57 µM in the experiment on HCC-2998 colon; 4.34 µM in the experiment with A498 renal. In addition, the GI50 was 4.81 µM with OVCAR-4 ovarian, 7.01 µM in the experiment on SK-OV-3 ovarian, 3.31 µM with IGROV1 ovarian and 4.81 µM in the experiment with MOLT-4 leukemia. For the same compound, the TGI in the experiment with LOX IMVI melanoma stood at 4.81 µM; in the experiment with NCI-H460 lung it was 11.7 µM; in the experiment on SK-MEL-2 melanoma, 15.7 µM; in the experiment with KM12 colon, 6.85 µM; with HCC-2998 colon, 7.03 µM; with A498 renal it was 9.98 µM. In addition, the TGI in the experiment with OVCAR-4 ovarian is over 25 µM; with SK-OV-3 ovarian it was over 25 µM; in the experiment with IGROV1 ovarian, 9.68 µM; in the experiment with MOLT-4 leukemia it was 16.1 µM.
`COc1ccc(/C=C(/C(=O)N2CCN(c3ccccc3)CC2)c2cc(OC)c(OC)c(OC)c2)cc1O`: the GI50 in the experiment with LOX IMVI melanoma is 0.398 µM; in the experiment with NCI-H460 lung, 0.374 µM; in the experiment on SK-MEL-2 melanoma it was 0.387 µM; with KM12 colon, 0.414 µM; in the experiment on HCC-2998 colon, 0.499 µM; in the experiment on A498 renal, 0.211 µM. The GI50 in the experiment with OVCAR-4 ovarian was 2.7 µM; in the experiment on SK-OV-3 ovarian it was 0.586 µM; in the experiment with IGROV1 ovarian, 0.519 µM; in the experiment with MOLT-4 leukemia, 0.368 µM. Also, the TGI was over 100 µM with LOX IMVI melanoma; over 100 µM in the experiment on NCI-H460 lung; 86.5 µM in the experiment with SK-MEL-2 melanoma; over 100 µM with KM12 colon; over 100 µM with HCC-2998 colon; 1.92 µM in the experiment with A498 renal. Further, the TGI in the experiment with OVCAR-4 ovarian, with SK-OV-3 ovarian, in the experiment with IGROV1 ovarian and in the experiment with MOLT-4 leukemia was over 100 µM throughout.
In the case of `CC(O)CCC(=O)c1ccoc1` (stereo not given), the TGI was over 10000 µM in the experiment on LOX IMVI melanoma; over 10000 µM with NCI-H460 lung; over 8110 µM in the experiment with SK-MEL-2 melanoma; over 8110 µM in the experiment with KM12 colon; over 10000 µM with HCC-2998 colon; 9940 µM in the experiment on A498 renal. Besides, the TGI in the experiment on OVCAR-4 ovarian is over 7940 µM; in the experiment on SK-OV-3 ovarian, over 7940 µM; in the experiment on IGROV1 ovarian, over 10000 µM; in the experiment on MOLT-4 leukemia it was over 9430 µM.
Turning to `COc1ccc(CN2C(=O)/C(=C\C(=O)c3ccc(OCCN4CCCCC4)cc3)c3ccccc32)cc1`, the GI50 is 1.65 µM in the experiment with LOX IMVI melanoma; 7.67 µM in the experiment with NCI-H460 lung; 13.8 µM in the experiment on SK-MEL-2 melanoma; 12 µM in the experiment with KM12 colon; 2.4 µM with HCC-2998 colon; 13.5 µM with A498 renal. Moreover, the GI50 is 2.62 µM with OVCAR-4 ovarian, 18.4 µM with SK-OV-3 ovarian, 2.08 µM in the experiment on IGROV1 ovarian and 2.26 µM with MOLT-4 leukemia. Also, the TGI in the experiment on LOX IMVI melanoma was found to be 3.04 µM; with NCI-H460 lung, 22.3 µM; with SK-MEL-2 melanoma it was 27.9 µM; with KM12 colon, 28.6 µM; in the experiment on HCC-2998 colon, 5.05 µM; in the experiment with A498 renal, 27 µM. In addition, the TGI was 8.13 µM in the experiment on OVCAR-4 ovarian, 34.3 µM with SK-OV-3 ovarian, 4.48 µM with IGROV1 ovarian and 6.26 µM in the experiment on MOLT-4 leukemia.
Regarding `C=C1C(=O)O[C@@H]2C[C@@H]1CC/C(C)=C/CC/C(C)=C/CC[C@@]2(C)O`, the GI50 in the experiment with LOX IMVI melanoma is 5.49 µM; with NCI-H460 lung, 16.5 µM; with SK-MEL-2 melanoma, 2.69 µM; in the experiment on KM12 colon, 3.31 µM; with HCC-2998 colon, 14 µM; with A498 renal, 23.4 µM. Also, the GI50 in the experiment on OVCAR-4 ovarian was 34.6 µM; in the experiment on SK-OV-3 ovarian it was 46.6 µM; in the experiment on IGROV1 ovarian it was 0.766 µM; in the experiment on MOLT-4 leukemia, 3.72 µM. For the same compound, the TGI in the experiment with LOX IMVI melanoma was over 100 µM; in the experiment with NCI-H460 lung, 43.2 µM; in the experiment with SK-MEL-2 melanoma, 12.5 µM; with KM12 colon it was 13.2 µM; in the experiment on HCC-2998 colon, 28.7 µM; in the experiment on A498 renal, 41.3 µM. The TGI with OVCAR-4 ovarian is over 100 µM; in the experiment on SK-OV-3 ovarian it was over 100 µM; in the experiment on IGROV1 ovarian, 20.2 µM; with MOLT-4 leukemia, 18 µM.
As for `COC(=O)c1cc2c(s1)C(=O)c1ccccc1-2`, the TGI in the experiment on LOX IMVI melanoma, with NCI-H460 lung, in the experiment on SK-MEL-2 melanoma, in the experiment on KM12 colon, with HCC-2998 colon and in the experiment with A498 renal was over 100 µM in each case. The TGI in the experiment with OVCAR-4 ovarian, with SK-OV-3 ovarian, with IGROV1 ovarian and in the experiment on MOLT-4 leukemia was over 100 µM each time.
